Experimental data reported in ChEMBL document CHEMBL1687752, “Impact of antifungal prophylaxis on colonization and azole susceptibility of Candida species” (2009).
≈ marks a conversion by molar mass, not a printed value.

Legend:
Type in all cases: functional
Nakaseomyces glabratus [1] = experiment: Antifungal activity against 42 days cultured Candida glabrata isolated from neutropenic subject with AML or MDS stool after 48 days of prophylaxis by broth microdilution method
Nakaseomyces glabratus [2] = experiment: Antifungal activity against 19 days cultured Candida glabrata isolated from HSCT recipient with acute or chronic GVHD mouth after 17 days of prophylaxis by broth microdilution method
Pichia kudriavzevii [3] = experiment: Antifungal activity against 8 days cultured Candida krusei isolated from neutropenic subject with AML or MDS pharynx after 12 days of prophylaxis by broth microdilution method
Pichia kudriavzevii [4] = experiment: Antifungal activity against 13 days cultured Candida krusei isolated from invasive fungal infected subject blood after 12 days of prophylaxis by broth microdilution method
Nakaseomyces glabratus [5] = experiment: Antifungal activity against 35 days cultured Candida glabrata isolated from HSCT recipient with acute or chronic GVHD mouth receiving antifungal therapy for 165 days after 138 days of prophylaxis by broth microdilution method
Nakaseomyces glabratus [6] = experiment: Antifungal activity against 25 days cultured Candida glabrata isolated from invasive fungal infected subject blood receiving antifungal therapy for 25 days after 3 days of prophylaxis by broth microdilution method
Nakaseomyces glabratus [7] = experiment: Antifungal activity against 7 days cultured Candida glabrata isolated from neutropenic subject with AML or MDS stool receiving antifungal therapy for 37 days after 9 days of prophylaxis by broth microdilution method
Candida tropicalis [8] = experiment: Antifungal activity against -3 days cultured Candida tropicalis isolated from neutropenic subject with AML or MDS pharynx receiving antifungal therapy for 45 days after 24 days of prophylaxis by broth microdilution method
Candida tropicalis [9] = experiment: Antifungal activity against 2 days cultured Candida tropicalis isolated from neutropenic subject with AML or MDS stool receiving antifungal therapy for 45 days after 24 days of prophylaxis by broth microdilution method
Nakaseomyces glabratus [10] = experiment: Antifungal activity against 16 days cultured Candida glabrata isolated from HSCT recipient with acute or chronic GVHD mouth receiving antifungal therapy for 31 days after 28 days of prophylaxis by broth microdilution method
Nakaseomyces glabratus [11] = experiment: Antifungal activity against 31 days cultured Candida glabrata isolated from HSCT recipient with acute or chronic GVHD mouth receiving antifungal therapy for 31 days after 28 days of prophylaxis by broth microdilution method
Nakaseomyces glabratus [12] = experiment: Antifungal activity against 62 days cultured Candida glabrata isolated from HSCT recipient with acute or chronic GVHD mouth receiving antifungal therapy for 143 days after 116 days of prophylaxis by broth microdilution method
Nakaseomyces glabratus [13] = experiment: Antifungal activity against 43 days cultured Candida glabrata isolated from HSCT recipient with acute or chronic GVHD mouth receiving antifungal therapy for 168 days after 113 days of prophylaxis by broth microdilution method
Nakaseomyces glabratus [14] = experiment: Antifungal activity against -2 days cultured Candida glabrata isolated from HSCT recipient with acute or chronic GVHD mouth receiving antifungal therapy for 172 days after 114 days of prophylaxis by broth microdilution method
Pichia kudriavzevii [15] = experiment: Antifungal activity against 1 day cultured Candida krusei isolated from neutropenic subject with AML or MDS pharynx receiving antifungal therapy for 19 days after 6 days of prophylaxis by broth microdilution method
Pichia kudriavzevii [16] = experiment: Antifungal activity against 6 days cultured Candida krusei isolated from neutropenic subject with AML or MDS stool receiving antifungal therapy for 19 days after 6 days of prophylaxis by broth microdilution method
Candida albicans [17] = experiment: Antifungal activity against Candida albicans isolated from HSCT recipients with acute or chronic GVHD prior to initiation of posaconazole therapy assessed as maximum MIC by broth microdilution method
Candida albicans [18] = experiment: Antifungal activity against Candida albicans isolated from HSCT recipients with acute or chronic GVHD receiving posaconazole assessed as maximum MIC by broth microdilution method
Candida albicans [19] = experiment: Antifungal activity against Candida albicans isolated from neutropenic subjects with AML or MDS prior to initiation of posaconazole therapy by broth microdilution method
Candida albicans [20] = experiment: Antifungal activity against Candida albicans isolated from neutropenic subjects with AML or MDS receiving posaconazole by broth microdilution method
Candida albicans [21] = experiment: Antifungal activity against Candida albicans isolated from HSCT recipients with acute or chronic GVHD prior to initiation of fluconazole therapy by broth microdilution method
Nakaseomyces glabratus [22] = experiment: Antifungal activity against Candida glabrata isolated from HSCT recipients with acute or chronic GVHD receiving fluconazole by broth microdilution method
Nakaseomyces glabratus [23] = experiment: Antifungal activity against Candida glabrata isolated from HSCT recipients with acute or chronic GVHD prior to initiation of fluconazole therapy assessed as maximum MIC by broth microdilution method
Nakaseomyces glabratus [24] = experiment: Antifungal activity against Candida glabrata isolated from HSCT recipients with acute or chronic GVHD receiving fluconazole assessed as maximum MIC by broth microdilution method
Candida albicans [25] = experiment: Antifungal activity against Candida albicans isolated from neutropenic subjects with AML or MDS prior to initiation of fluconazole therapy by broth microdilution method
Candida albicans [26] = experiment: Antifungal activity against Candida albicans isolated from neutropenic subjects with AML or MDS prior to initiation of fluconazole therapy assessed as maximum MIC by broth microdilution method
Pichia kudriavzevii [27] = experiment: Antifungal activity against Candida krusei isolated from neutropenic subjects with AML or MDS prior to initiation of fluconazole therapy assessed as maximum MIC by broth microdilution method
Candida albicans [28] = experiment: Antifungal activity against Candida albicans isolated from HSCT recipient 262 with acute or chronic GVHD mouth receiving antifungal drug after 115 days prophylaxis by broth microdilution method
Nakaseomyces glabratus [29] = experiment: Antifungal activity against Candida glabrata isolated from neutropenic subject 1102 with AML or MDS stool receiving antifungal drug after 26 days prophylaxis by broth microdilution method; conditions: 624 h
Nakaseomyces glabratus [30] = experiment: Antifungal activity against Candida glabrata isolated from neutropenic subject 1497 with AML or MDS pharynx receiving antifungal drug after 61 days prophylaxis by broth microdilution method
Nakaseomyces glabratus [31] = experiment: Antifungal activity against Candida glabrata isolated from HSCT recipient 186 with acute or chronic GVHD mouth after 112 days prophylaxis by broth microdilution method
Nakaseomyces glabratus [32] = experiment: Antifungal activity against Candida glabrata isolated from HSCT recipient 186 with acute or chronic GVHD mouth receiving antifungal drug after 112 days prophylaxis by broth microdilution method
Nakaseomyces glabratus [33] = experiment: Antifungal activity against Candida glabrata isolated from HSCT recipient 975 with acute or chronic GVHD mouth receiving antifungal drug after 112 days prophylaxis by broth microdilution method
Saccharomyces cerevisiae = experiment: Antifungal activity against Saccharomyces cerevisiae isolated from HSCT recipient 513 with acute or chronic GVHD mouth after 112 days prophylaxis by broth microdilution method
Candida albicans [34] = experiment: Antifungal activity against Candida albicans isolated from HSCT recipient 031 with acute or chronic GVHD mouth after 109 days prophylaxis by broth microdilution method
Nakaseomyces glabratus [35] = experiment: Antifungal activity against Candida glabrata isolated from HSCT recipient 002 with acute or chronic GVHD mouth receiving antifungal drug after 116 days prophylaxis by broth microdilution method
Nakaseomyces glabratus [36] = experiment: Antifungal activity against Candida glabrata isolated from HSCT recipient 497 with acute or chronic GVHD mouth after 114 days prophylaxis by broth microdilution method
Nakaseomyces glabratus [37] = experiment: Antifungal activity against Candida glabrata isolated from HSCT recipient 807 with acute or chronic GVHD mouth after 114 days prophylaxis by broth microdilution method
Nakaseomyces glabratus [38] = experiment: Antifungal activity against Candida glabrata isolated from HSCT recipient 491 with acute or chronic GVHD mouth receiving antifungal drug after 112 days prophylaxis by broth microdilution method

## CC[C@@H]([C@H](C)O)n1ncn(-c2ccc(N3CCN(c4ccc(OC[C@@H]5CO[C@@](Cn6cncn6)(c6ccc(F)cc6F)C5)cc4)CC3)cc2)c1=O [POSACONAZOLE]
Nakaseomyces glabratus [1]
  MIC: 1 µg/mL (≈ 1.43 µM)
Nakaseomyces glabratus [2]
  MIC: 8 µg/mL (≈ 11.4 µM)
Pichia kudriavzevii [3]
  MIC: 0.125 µg/mL (≈ 0.178 µM)
Pichia kudriavzevii [4]
  MIC: 0.25 µg/mL (≈ 0.357 µM)
Nakaseomyces glabratus [5]
  MIC: 4 µg/mL (≈ 5.71 µM)
Nakaseomyces glabratus [6]
  MIC: 0.5 µg/mL (≈ 0.713 µM)
Nakaseomyces glabratus [7]
  MIC: 1 µg/mL (≈ 1.43 µM)
Candida tropicalis [8]
  MIC: < 0.015 µg/mL
Candida tropicalis [9]
  MIC: < 0.015 µg/mL
Nakaseomyces glabratus [10]
  MIC: < 0.5 µg/mL
Nakaseomyces glabratus [11]
  MIC: < 0.5 µg/mL
Nakaseomyces glabratus [12]
  MIC: 4 µg/mL (≈ 5.71 µM)
Nakaseomyces glabratus [13]
  MIC: 2 µg/mL (≈ 2.85 µM)
Nakaseomyces glabratus [14]
  MIC: 0.5 µg/mL (≈ 0.713 µM)
Pichia kudriavzevii [15]
  MIC: 0.06 µg/mL (≈ 0.0856 µM)
Pichia kudriavzevii [16]
  MIC: 0.125 µg/mL (≈ 0.178 µM)
Candida albicans [17]
  MIC: 16 µg/mL
Candida albicans [18]
  MIC: 0.25 µg/mL
Candida albicans [19]
  MIC50: 0.015 µg/mL (≈ 0.0214 µM)
  MIC90: 0.015 µg/mL (≈ 0.0214 µM)
Candida albicans [20]
  MIC50: 0.015 µg/mL (≈ 0.0214 µM)
  MIC90: 0.015 µg/mL (≈ 0.0214 µM)
Candida albicans [21]
  MIC50: 0.016 µg/mL (≈ 0.0228 µM)
  MIC90: 0.03 µg/mL (≈ 0.0428 µM)
Nakaseomyces glabratus [22]
  MIC50: 2 µg/mL (≈ 2.85 µM)
  MIC90: 8 µg/mL (≈ 11.4 µM)
Nakaseomyces glabratus [23]
  MIC: 16 µg/mL
Nakaseomyces glabratus [24]
  MIC: 16 µg/mL
Candida albicans [25]
  MIC50: 0.015 µg/mL (≈ 0.0214 µM)
  MIC90: 0.015 µg/mL (≈ 0.0214 µM)
Candida albicans [26]
  MIC: 0.06 µg/mL
Pichia kudriavzevii [27]
  MIC: 0.25 µg/mL
Candida albicans [28]
  MIC: < 0.015 µg/mL
Nakaseomyces glabratus [29]
  MIC: > 8 µg/mL
Nakaseomyces glabratus [30]
  MIC: 4 µg/mL (≈ 5.71 µM)
Nakaseomyces glabratus [31]
  MIC: 0.25 µg/mL (≈ 0.357 µM)
Nakaseomyces glabratus [32]
  MIC: 2 µg/mL (≈ 2.85 µM)
Nakaseomyces glabratus [33]
  MIC: 4 µg/mL (≈ 5.71 µM)
Saccharomyces cerevisiae
  MIC: 1 µg/mL (≈ 1.43 µM)
Candida albicans [34]
  MIC: < 0.015 µg/mL
Nakaseomyces glabratus [35]
  MIC: 4 µg/mL (≈ 5.71 µM)
Nakaseomyces glabratus [36]
  MIC: 0.5 µg/mL (≈ 0.713 µM)
Nakaseomyces glabratus [37]
  MIC: 0.25 µg/mL (≈ 0.357 µM)
Nakaseomyces glabratus [38]
  MIC: 2 µg/mL (≈ 2.85 µM)
